Reference: patent publication KR20050073110A, “간 x 수용체의 항진제” (주식회사 엘지생명과학, priority 2004, dated 2005)

Key:
LXRα (pGAL-hLXRα-LBD) = biological target: T1, LXRα (pGAL-hLXRα-LBD) (Homo sapiens, UniProt Q13133); experiment: Transient transfection assay (luciferase reporter) in HEK293 / NIH3T3 cells; assay type: cell-based; details: increasing amounts of compound, without RXRα expression plasmid (Fig. 1)
T1 construct: 수용체 발현 벡터(pGAL-hLXRα-LBD); expressed in transfected cells; host or cells: HEK293 or NIH3T3 cells
T1 sequence (Q13133 209-447 limits assumed): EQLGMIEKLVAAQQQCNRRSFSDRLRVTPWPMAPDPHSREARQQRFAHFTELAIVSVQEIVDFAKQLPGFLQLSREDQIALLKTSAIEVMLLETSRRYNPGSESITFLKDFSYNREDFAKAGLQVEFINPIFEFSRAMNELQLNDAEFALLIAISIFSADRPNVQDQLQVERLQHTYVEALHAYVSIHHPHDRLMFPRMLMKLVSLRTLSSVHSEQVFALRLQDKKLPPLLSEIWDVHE

CYP7A = CYP7A assay in liver of orally dosed mice; assay type: in vivo, C57BL/6J mouse; details: C57BL/6J mice (n=6), single oral administration, liver taken after 8 h; dose not given
[1] = Plasma lipid change experiment in mice; assay type: in vivo, C57BL/6J mouse; details: 14 days, C57BL/6J mice (n=6), blood 6 h after last dose
[2] = biological target: T2, LXRα ligand-binding domain [LXRα 리간드-결합 도메인] (GST-LXRα-LBD) (Homo sapiens, UniProt Q13133); experiment: Fluorescence polarization assay (rhodamine-labelled LXXLL peptide recruitment to GST-LXRα-LBD); assay type: biochemical; details: 10 nM rhodamine-labelled peptide, 200 nM GST-LXRα-LBD, overnight (Fig. 2)
T2 construct: LXRα 리간드-결합 도메인을 글루타치온 S-트랜스퍼라제(GST)의 C-말단에 융합시키고; made in house; host or cells: E. coli
T2 sequence (Q13133 209-447 limits assumed): T1 sequence (Q13133 209-447 limits assumed)

Compound	luciferase activity (LXRα-mediated transcription) (LXRα (pGAL-hLXRα-LBD))	increase in CYP7A activity in liver (CYP7A)	increase in plasma HDL cholesterol ([1]; 30 mg/kg oral)	increase in plasma HDL cholesterol ([1]; 100 mg/kg oral)	fluorescence polarization activity (coactivator peptide recruitment) [2]
COC(=O)c1cccc(S(=O)(=O)/C(C#N)=C/c2cc(C(C)C)n(-c3ccccc3C(F)(F)F)c2C)c1 [#182, (E)-2-(3-메톡시카보닐페닐)설포닐-3-[1-(2-트리플루오로메틸페닐)-2-메틸-5-이소프로필피롤-3-일]아크릴로니트릴]	용량 의존적으로 루시퍼라제 활성이 증가하였다				
CC(C)c1cc(/C=C(\C#N)S(=O)(=O)c2ccccc2)cn1-c1ccccc1C(F)(F)F [#189, (E)-2-페닐설포닐-3-[1-(2-트리플루오로메틸페닐)-5-이소프로필피롤-3-일]아크릴로니트릴]		91%	18%	41%	
CC(C)CC[C@@H](O)[C@@H](C)[C@H]1CC[C@H]2[C@@H]3CC=C4C[C@@H](O)CC[C@]4(C)[C@H]3CC[C@]12C [22(R)-하이드록시콜레스테롤, reference compound]	용량 의존적으로 루시퍼라제 활성이 증가하였다				형광의 증가를 나타내었다
Cc1c(/C=C(\C#N)S(=O)(=O)c2ccccc2)cc(C(C)C)n1-c1ccccc1C(F)(F)F [#44, (E)-2-페닐설포닐-3-[1-(2-트리플루오로메틸페닐)-2-메틸-5-이소프로필피롤-3-일]아크릴로니트릴]	용량 의존적으로 루시퍼라제 활성이 증가하였다				
O=S(=O)(c1ccccc1)N(CC(F)(F)F)c1ccc(C(O)(C(F)(F)F)C(F)(F)F)cc1 [T0901317, reference compound]	용량 의존적으로 루시퍼라제 활성이 증가하였다				가장 높은 활성을 나타내었고
